Tests used:
Format in all cases: in vivo, human
[1] = test system: children with hypochondroplasia; test: Phase 2 trial secondary outcomes: bone age, sitting height ratio, arm span minus height
Procedure: (§1) Secondary outcomes included the change in body proportions as measured by sitting height to standing height ratio and arm span minus standing height, as well as the change in bone age to chronological age ratio after 12 months of therapy. Sitting height was measured three times at each visit using a sitting height table. The average of the three values was used. Sitting height to standing height ratio and arm span minus standing height were standardized for age and sex using available reference data and SDS were calculated.[11]^,[12] Bone age X-rays were read by a single reviewer who was blinded to participant ID, age and time point. Exploratory endpoints included pharmacokinetic parameters, pharmacodynamic markers including collagen X biomarker (CXM) levels and urine cGMP production, and changes in quality of life as measured by the QoLISSY scale.[13] CXM levels in serum were measured in duplicate via an ELISA assay at the Shriners Hospitals for Children in Portland, Oregon as previously described.[14] The average of the two values was used for analysis. Urine samples were obtained for cGMP measurement at baseline and 60, 120, and 240 min after vosoritide injections at the Day 1, Month 6 and Month 12 visits. cGMP levels were assayed at ICON Laboratories (Farmingdale, NY) and were normalized to urine creatinine levels at each time point.
No formal power calculations were done for this proof of principle study. Sample size was determined based on logistical feasibility. Medication adherence was calculated using the number of returned empty vials divided by the number of days of prescribed therapy. Demographics and clinical characteristics were summarized with mean and standard deviation (SD), median and interquartile (IQR) for numerical variables, frequency and proportion for categorical variables. Primary and secondary clinical outcomes were summarized with mean (SD) for the 6-month observation period and the 12-month treatment period. Paired t-tests were carried out to compare the difference between the treatment and observation periods. The corresponding p-value and 95% confidence interval (CI) were reported. Box and whisker plots were used for both primary endpoints (annualized growth velocity and height SDS) and exploratory endpoints (CXM and cGMP) to visualize the trends for the change from baseline to each of the follow-up visits. Safety data (AEs) were summarized as count and percentage of patients as well as the number of total occurrences per each listed AE for the observation period and the treatment period, respectively. As exploratory analyses, the primary endpoints were stratified based on age, baseline growth velocity and baseline height SDS. The summaries of mean (SD) for each visit, mean differences between treatment and observation periods, and the corresponding p-value and 95% CI were all reported. Parent reported quality of life using the QoLISSY scale was also reported with a similar tabular format. Data were analyzed using SAS for Windows version 9.4 (SAS Institute Inc., Cary, NC). A two-sided test with a significance level of 0.05 was used for all hypothesis tests.

[2] = test system: collagen X biomarker (CXM); test: Serum collagen X biomarker (CXM) by ELISA
Procedure: as §1

urine cGMP = test: Urine cGMP after vosoritide injection, normalized to urine creatinine
Procedure: as §1

Sequence: PGQEHPNARKYKGANKKGLSKGCFGLKLDRIGSMSGLGC (disulfide) [vosoritide, recombinant 39-amino-acid C-type natriuretic peptide analog expressed in E. coli, cyclic by an intramolecular disulfide bond]
- Bone age, Month 12 ([1]; 15 μg/kg/day SC, mean (SD), Day 1 61.42 (30.40), single blinded reader, SD): 71.58 (32.17) months
- Bone age, change during treatment period ([1]; Day 1 to Month 12, mean (95% CI), p<0.0001): 10.17 (7.03, 13.31) months
- Bone age/chronological age, change during treatment period ([1]; Day 1 to Month 12, mean (95% CI), p=0.67): 0.01 (−0.03, 0.05)
- Sitting height ratio unadjusted, change during treatment period ([1]; Day 1 to Month 12, mean (95% CI), observation period −0.001 (−0.003, 0.001)): −0.009 (−0.01, −0.006)
- Arm span minus height unadjusted, change during treatment period ([1]; Day 1 to Month 12, mean (95% CI), observation period −0.66 (−1.72, 0.40)): −0.76 (−1.55, 0.04)
- Bone age/chronological age, Month 12 ([1]; mean (SD), Day 1 0.78 (0.14), SD): 0.79 (0.15)
- Arm span minus height unadjusted, Month 12 ([1]; mean (SD), Day 1 −6.26 (2.83), protocol: measurements in centimeters, SD): −7.01 (3.21)
- Sitting height ratio unadjusted, Month 12 ([1]; sitting height/standing height, mean (SD), Day 1 0.63 (0.02), SD): 0.62 (0.02)
- CXM levels, Month 6 versus Month 12 visit ([2]; n=24, on treatment): no significant differences
- CXM, Month 12 ([2]; serum, ELISA in duplicate, 15 μg/kg/day SC, mean (SD), Day 1 22.48 (6.49), SD): 41.62 (15.86) ng/ml
- Average maximum cGMP increase from baseline across visits (urine cGMP; Day 1, Month 6, Month 12 compared): not significantly different at Day 1, Month 6 or Month 12
- Time of peak urine cGMP after administration (urine cGMP; samples at baseline, 60, 120 and 240 min after injection): 2 h
- Time to evident increase in urine cGMP after administration (urine cGMP; samples at baseline, 60, 120 and 240 min after injection, Day 1, Month 6, Month 12): ≤ 1 h
